pEC50: −log10 of the molar value.
biological target: FXR (Homo sapiens (Human), UniProt Q96RI1); assay: transient human FXR/Gal4-luciferase reporter assay; assay type: cell-based; settings: Gal4-hFXR fusion construct, HEK293 reporter cells; response relative to 8 μM GW-4064
Experimental: A Gal4-hFXR fusion construct reporter system was used as the primary assay to characterize compound activity. A construct including 5 copies of the Gal4 promoter response element upstream of a firefly luciferase reporter cDNA was stably expressed in HEK293 cells. This reporter cell line was maintained in Dulbecco's Modified Eagle's medium (DMEM; Gibco) supplemented with 1% penicillin-streptomycin (P/S) solution, 500 μg/mL Zeocin and 10% charcoal/dextran-treated fetal bovine serum (cs-FBS) at 37° C. in a humidified 5% CO2 atmosphere. Another plasmid was constructed in which the human cytomegalovirus promoter in the pcDNA3.1 vector directs the expression of the cDNA encoding a fusion protein comprised of the DNA binding domain from the Gal4 transcription factor fused to the ligand binding domain from human FXR.
The day prior to transfection, the reporter cells in culture are detached from the plate with trypsin and plated into a T75 flask at a sufficient density to achieve approximately 90% confluence the next morning. The transfection reagents are prepared by separately diluting 25 μg of the pcDNA3.1-Gal4-FXR plasmid into 1.87 mL of Opti-MEM (Thermo-Fisher), and 40 μL of Lipofectamine 2000 (Thermo-Fisher) into 1.87 mL of Opti-MEM, and then adding the diluted DNA solution into the diluted Lipofectamine 2000 solution and incubating at room temperature for 15-20 minutes. The mixture is further diluted with 10 mL of a solution comprised of DMEM, 10% cs-FBS, and 1% P/S immediately prior to transferring to the cells. The maintenance culture media is aspirated from the cells and the final transfection mixture is added before the cells are incubated overnight at 37° C. in a humidified 5% CO2 atmosphere. This protocol can be scaled up, and the transiently transfected cells can be cryopreserved in an assay-ready format.
For compound testing, 100 nL of the compounds (serial dilutions in DMSO) are dispensed with an Echo acoustic dispenser (Labcyte) into the wells of a Corning/Costar clear bottom 384-well white plate. The transfected cells are harvested, counted, and diluted such that 10-25,000 cells in 25 μL are plated into each well of the 384-well compound assay plate. The compound-treated cells are incubated overnight at 37° C. in a humidified 5% CO2 atmosphere. The next morning 25 μL of Steady-Glo (Promega) are added to each well of the plate, the mixture is incubated for 15 min. with shaking, and luminescence is measured on an Envision (Perkin Elmer) plate reader.

Chain of FXR (Q96RI1 262-486): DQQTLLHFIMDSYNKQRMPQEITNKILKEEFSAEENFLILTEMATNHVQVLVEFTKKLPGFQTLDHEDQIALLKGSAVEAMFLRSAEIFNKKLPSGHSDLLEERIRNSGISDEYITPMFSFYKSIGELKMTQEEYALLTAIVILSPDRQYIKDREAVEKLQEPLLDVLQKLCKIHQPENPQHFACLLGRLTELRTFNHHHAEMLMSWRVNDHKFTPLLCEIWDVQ

| Compound | pEC50 |
| --- | --- |
| COc1cc(-c2cccc(N(CC34CCC(c5nnc(C)s5)(CC3)CC4)C(=O)C3CC(O)(C(F)(F)F)C3)c2)ccn1 [Example 236, (1S,3S)-3-hydroxy-N-(3-(2-methoxypyridin-4-yl)phenyl)-N-((4-(5-methyl-1,3,4-thiadiazol-2-yl)bicyclo[2.2.2]octan-1-yl)methyl)-3-(trifluoromethyl)cyclobutane-1-carboxamide] | 5.81 |
| COc1cc(-c2cccc(N(CC34CCC(c5ccnc(C)c5)(CC3)CC4)C(=O)C3CC(F)(F)C3)c2)ccn1 [Example 237, 3,3-Difluoro-N-(3-(2-methoxypyridin-4-yl)phenyl)-N-((4-(2-methylpyridin-4-yl)bicyclo[2.2.2]octan-1-yl)methyl)cyclobutane-1-carboxamide] | 6.27 |
| COc1cc(-c2cccc(N(CC34CCC(c5ccnc(C)c5)(CC3)CC4)C(=O)C34CC(F)(C3)C4)c2)ccn1 [Example 238, 3-Fluoro-N-(3-(2-methoxypyridin-4-yl)phenyl)-N-((4-(2-methylpyridin-4-yl)bicyclo[2.2.2]octan-1-yl)methyl)bicyclo[1.1.1]pentane-1-carboxamide] | 6.29 |
| COc1cc(-c2cccc(N(CC34CCC(c5cccc(C)n5)(CC3)CC4)C(=O)C34CC(F)(C3)C4)c2)ccn1 [Example 239, 3-Fluoro-N-(3-(2-methoxypyridin-4-yl)phenyl)-N-((4-(6-methylpyridin-2-yl)bicyclo[2.2.2]octan-1-yl)methyl)bicyclo[1.1.1]pentane-1-carboxamide] | 5.88 |
| COc1cc(-c2cccc(N(CC34CCC(c5cc(C(F)(F)F)ccn5)(CC3)CC4)C(=O)C3CCC3)c2)ccn1 [Example 240, N-(3-(2-methoxypyridin-4-yl)phenyl)-N-((4-(4-(trifluoromethyl)pyridin-2-yl)bicyclo[2.2.2]octan-1-yl)methyl)cyclobutanecarboxamide] | 5.67 |
| COc1cc(-c2cccc(N(CC34CCC(c5cc(C(F)(F)F)ccn5)(CC3)CC4)C(=O)C34CC(F)(C3)C4)c2)ccn1 [Example 241, 3-fluoro-N-(3-(2-methoxypyridin-4-yl)phenyl)-N-((4-(4-(trifluoromethyl)pyridin-2-yl)bicyclo[2.2.2]octan-1-yl)methyl)bicyclo[1.1.1]pentane-1-carboxamide] | 5.98 |
| COc1nccc(-c2cccc(N(CC34CCC(c5nc(C6CC6)no5)(CC3)CC4)C(=O)C34CC(F)(C3)C4)c2)n1 [Example 242, N-((4-(3-cyclopropyl-1,2,4-oxadiazol-5-yl)bicyclo[2.2.2]octan-1-yl)methyl)-3-fluoro-N-(3-(2-methoxypyrimidin-4-yl)phenyl)bicyclo[1.1.1]pentane-1-carboxamide] | 6.56 |
| COc1nccc(-c2cccc(N(CC34CCC(c5nc(C6CC6)no5)(CC3)CC4)C(=O)C3CC(F)(F)C3)c2)n1 [Example 243, N-((4-(3-cyclopropyl-1,2,4-oxadiazol-5-yl)bicyclo[2.2.2]octan-1-yl)methyl)-3,3-difluoro-N-(3-(2-methoxypyrimidin-4-yl)phenyl)cyclobutane-1-carboxamide] | 6.37 |
| COc1nccc(-c2cccc(N(CC34CCC(c5nc(C6CC6)no5)(CC3)CC4)C(=O)C3CCC3)c2)n1 [Example 244, N-((4-(3-cyclopropyl-1,2,4-oxadiazol-5-yl)bicyclo[2.2.2]octan-1-yl)methyl)-N-(3-(2-methoxypyrimidin-4-yl)phenyl)cyclobutanecarboxamide] | 6.24 |
| COc1nccc(-c2cccc(N(CC34CCC(c5nc(C6CC6)no5)(CC3)CC4)C(=O)C3CCC(F)(F)C3)c2)n1 (stereo not drawn) [Example 245, N-((4-(3-cyclopropyl-1,2,4-oxadiazol-5-yl)bicyclo[2.2.2]octan-1-yl)methyl)-3,3-difluoro-N-(3-(2-methoxypyrimidin-4-yl)phenyl)cyclopentane-1-carboxamide] | 6.27 |
| CS(=O)(=O)Nc1ccc(-c2cccc(N(CC34CCC(c5nc(C6CC6)no5)(CC3)CC4)C(=O)C34CC(F)(C3)C4)c2)cc1 [Example 246, N-((4-(3-cyclopropyl-1,2,4-oxadiazol-5-yl)bicyclo[2.2.2]octan-1-yl)methyl)-3-fluoro-N-(4′-(methylsulfonamido)-[1,1′-biphenyl]-3-yl)bicyclo[1.1.1]pentane-1-carboxamide] | 7.18 |
| Cc1cc(-c2cccc(N(CC34CCC(c5nc(C6CC6)no5)(CC3)CC4)C(=O)C34CC(F)(C3)C4)c2)cnc1F [Example 247, N-((4-(3-cyclopropyl-1,2,4-oxadiazol-5-yl)bicyclo[2.2.2]octan-1-yl)methyl)-3-fluoro-N-(3-(6-fluoro-5-methylpyridin-3-yl)phenyl)bicyclo[1.1.1]pentane-1-carboxamide] | 6.47 |
| COc1ncc(-c2cccc(N(CC34CCC(c5nc(C6CC6)no5)(CC3)CC4)C(=O)C34CC(F)(C3)C4)c2)cn1 [Example 248, N-((4-(3-cyclopropyl-1,2,4-oxadiazol-5-yl)bicyclo[2.2.2]octan-1-yl)methyl)-3-fluoro-N-(3-(2-methoxypyrimidin-5-yl)phenyl)bicyclo[1.1.1]pentane-1-carboxamide] | 6.81 |
| COc1ccc(-c2cccc(N(CC34CCC(c5nc(C6CC6)no5)(CC3)CC4)C(=O)C34CC(F)(C3)C4)c2)cn1 [Example 249, N-((4-(3-cyclopropyl-1,2,4-oxadiazol-5-yl)bicyclo[2.2.2]octan-1-yl)methyl)-3-fluoro-N-(3-(6-methoxypyridin-3-yl)phenyl)bicyclo[1.1.1]pentane-1-carboxamide] | 6.82 |
| O=C(N(CC12CCC(c3nc(C4CC4)no3)(CC1)CC2)c1cccc(-c2cc(Cl)cc(Cl)c2)c1)C12CC(F)(C1)C2 [Example 250, N-((4-(3-cyclopropyl-1,2,4-oxadiazol-5-yl)bicyclo[2.2.2]octan-1-yl)methyl)-N-(3′,5′-dichloro-[1,1′-biphenyl]-3-yl)-3-fluorobicyclo[1.1.1]pentane-1-carboxamide] | 6.11 |
| O=C(N(CC12CCC(c3nc(C4CC4)no3)(CC1)CC2)c1cccc(-c2ccc(OC(F)(F)F)cc2)c1)C12CC(F)(C1)C2 [Example 251, N-((4-(3-cyclopropyl-1,2,4-oxadiazol-5-yl)bicyclo[2.2.2]octan-1-yl)methyl)-3-fluoro-N-(4′-(trifluoromethoxy)-[1,1′-biphenyl]-3-yl)bicyclo[1.1.1]pentane-1-carboxamide] | 6.56 |
| O=C(N(CC12CCC(c3nc(C4CC4)no3)(CC1)CC2)c1cccc(-c2cccc(C(F)(F)F)c2)c1)C12CC(F)(C1)C2 [Example 252, N-((4-(3-cyclopropyl-1,2,4-oxadiazol-5-yl)bicyclo[2.2.2]octan-1-yl)methyl)-3-fluoro-N-(3′-(trifluoromethyl)-[1,1′-biphenyl]-3-yl)bicyclo[1.1.1]pentane-1-carboxamide] | 6.08 |
| O=C(N(CC12CCC(c3nc(C4CC4)no3)(CC1)CC2)c1cccc(-c2ccc(C(F)(F)F)cc2)c1)C12CC(F)(C1)C2 [Example 253, N-((4-(3-cyclopropyl-1,2,4-oxadiazol-5-yl)bicyclo[2.2.2]octan-1-yl)methyl)-3-fluoro-N-(4′-(trifluoromethyl)-[1,1′-biphenyl]-3-yl)bicyclo[1.1.1]pentane-1-carboxamide] | 6.60 |
| CC(=O)Nc1cccc(-c2cccc(N(CC34CCC(c5nc(C6CC6)no5)(CC3)CC4)C(=O)C34CC(F)(C3)C4)c2)c1 [Example 254, N-(3′-acetamido-[1,1′-biphenyl]-3-yl)-N-((4-(3-cyclopropyl-1,2,4-oxadiazol-5-yl)bicyclo[2.2.2]octan-1-yl)methyl)-3-fluorobicyclo[1.1.1]pentane-1-carboxamide] | 6.62 |
| O=C(N(CC12CCC(c3nc(C4CC4)no3)(CC1)CC2)c1cccc(-c2ccc3c(c2)OCO3)c1)C12CC(F)(C1)C2 [Example 255, N-(3-(benzo[d][1,3]dioxol-5-yl)phenyl)-N-((4-(3-cyclopropyl-1,2,4-oxadiazol-5-yl)bicyclo[2.2.2]octan-1-yl)methyl)-3-fluorobicyclo[1.1.1]pentane-1-carboxamide] | 7.16 |
| CS(=O)(=O)Nc1cccc(-c2cccc(N(CC34CCC(c5nc(C6CC6)no5)(CC3)CC4)C(=O)C34CC(F)(C3)C4)c2)c1 [Example 256, N-((4-(3-cyclopropyl-1,2,4-oxadiazol-5-yl)bicyclo[2.2.2]octan-1-yl)methyl)-3-fluoro-N-(3′-(methylsulfonamido)-[1,1′-biphenyl]-3-yl)bicyclo[1.1.1]pentane-1-carboxamide] | 6.66 |

— US11254663B2 (BRISTOL-MYERS SQUIBB COMPANY, priority 2019, dated 2022)
